Measurements as given in US10543212B2, “Substituted amines for treating cardiac diseases” (Cardurion Pharmaceuticals, LLC, priority 2017, dated 2020).

target: T1, Full-length, GST-tagged, human CaMKIIδ (Homo sapiens, UniProt Q13557); test: CaMKIIδ binding assay (TR-FRET with BODIPY-labeled probe ligand); details: Table 2; activity class for CaMKIIδ
T1 construct: Full-Length, Glutathione-S-Transferase(GST)-Tagged, Human CaMKIIδ was purchased from Carna Biosciences; purchased Carna Biosciences 02-111
In short: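 Compounds were tested as 4-fold, eight-point series for 1 hr at room temperature, and IC50 was obtained by logistic fitting against a 3 μM parent-compound control. Signal came from displacement of a 300 nM BODIPY ligand from 0.5 nM GST-CaMKIIδ, detected via Tb-anti-GST in calmodulin/Ca2+ (pH 7.6).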

T1 sequence (Q13557 1-478 isoform Q13557-12): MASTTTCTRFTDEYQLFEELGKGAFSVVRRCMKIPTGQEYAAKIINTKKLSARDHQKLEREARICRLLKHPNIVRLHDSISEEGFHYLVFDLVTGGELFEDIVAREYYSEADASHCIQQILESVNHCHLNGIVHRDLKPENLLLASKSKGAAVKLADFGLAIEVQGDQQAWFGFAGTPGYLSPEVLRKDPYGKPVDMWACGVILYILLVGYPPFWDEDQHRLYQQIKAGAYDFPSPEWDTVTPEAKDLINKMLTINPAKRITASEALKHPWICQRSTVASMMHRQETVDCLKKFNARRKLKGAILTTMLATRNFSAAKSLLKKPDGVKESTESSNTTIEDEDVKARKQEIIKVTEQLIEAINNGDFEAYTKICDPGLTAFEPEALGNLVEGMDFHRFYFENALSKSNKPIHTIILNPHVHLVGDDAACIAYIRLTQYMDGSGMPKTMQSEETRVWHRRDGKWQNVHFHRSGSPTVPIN

Q: Which IC50 does the source give for C[C@@H](Cn1cnnn1)Oc1cc(-c2cnc(Nc3cn(C4CCCN(C5COC5)C4)nc3C(F)(F)F)nc2)ccc1Cl (stereo partly drawn) [Example 601, 5-(3-(((S)-1-(1H-tetrazol-1-yl)propan-2-yl)oxy)-4-chlorophenyl)-N-(1-(1-(oxetan-3-yl)piperidin-3-yl)-3-(trifluoromethyl)-1H-pyrazol-4-yl)pyrimidin-2-amine] here?
A: 10 to 100 nM

Q: Which IC50 does the source give for C[C@@H](Cn1cnnn1)Oc1cc(-c2cnc(Nc3cn(CC4CCCN4)nc3C(F)(F)F)nc2)ccc1Cl (stereo partly drawn) [Example 602, 5-(3-(((S)-1-(1H-tetrazol-1-yl)propan-2-yl)oxy)-4-chlorophenyl)-N-(1-(pyrrolidin-2-ylmethyl)-3-(trifluoromethyl)-1H-pyrazol-4-yl)pyrimidin-2-amine] here?
A: < 10 nM

Q: For CCOC(=O)C1CCC(n2cc(Nc3ncc(-c4ccc(Cl)c(O[C@@H](C)Cn5cnnn5)c4)cn3)c(C(F)(F)F)n2)CC1 (stereo partly drawn) [Example 603, ethyl (S)-4-(4-((5-(3-((1-(1H-tetrazol-1-yl)propan-2-yl)oxy)-4-chlorophenyl)pyrimidin-2-yl)amino)-3-(trifluoromethyl)-1H-pyrazol-1-yl)cyclohexane-1-carboxylate], which IC50 is on record?
A: 10 to 100 nM

Q: For C[C@@H](Cn1cnnn1)Oc1cc(-c2cnc(Nc3cn(C4CCC(C(=O)O)CC4)nc3C(F)(F)F)nc2)ccc1Cl (stereo partly drawn) [Example 604, (S)-4-(4-((5-(3-((1-(1H-tetrazol-1-yl)propan-2-yl)oxy)-4-chlorophenyl)pyrimidin-2-yl)amino)-3-(trifluoromethyl)-1H-pyrazol-1-yl)cyclohexane-1-carboxylic acid], which IC50 is on record?
A: 10 to 100 nM

Q: Which IC50 does the source give for Cc1ncc(N2CC(N3CCOCC3)C2)cc1Nc1ncc(-c2ccc(Cl)c(O[C@@H](C)Cn3cnnn3)c2)cn1 [Example 605, (S)-5-(3-((1-(1H-tetrazol-1-yl)propan-2-yl)oxy)-4-chlorophenyl)-N-(2-methyl-5-(3-morpholinoazetidin-1-yl)pyridin-3-yl)pyrimidin-2-amine] here?
A: 10 to 100 nM

Q: Which IC50 does the source give for CCN(CC)C(=O)Cn1cc(Nc2ncc(-c3ccc(Cl)c(O[C@@H](C)Cn4cnnn4)c3)cn2)c(C(F)(F)F)n1 [Example 606, (S)-2-(4-((5-(3-((1-(1H-tetrazol-1-yl)propan-2-yl)oxy)-4-chlorophenyl)pyrimidin-2-yl)amino)-3-(trifluoromethyl)-1H-pyrazol-1-yl)-N,N-diethylacetamide] here?
A: 10 to 100 nM

Q: How did the IC50 turn out when C[C@@H](Cn1cnnn1)Oc1cc(-c2cnc(Nc3cn(CC(=O)N4CCOCC4)nc3C(F)(F)F)nc2)ccc1Cl [Example 607, (S)-2-(4-((5-(3-((1-(1H-tetrazol-1-yl)propan-2-yl)oxy)-4-chlorophenyl)pyrimidin-2-yl)amino)-3-(trifluoromethyl)-1H-pyrazol-1-yl)-1-morpholinoethan-1-one] was run?
A: < 10 nM

Q: How did the IC50 turn out when CCC(C)n1cc(Nc2ncc(-c3ccc(Cl)c(O[C@@H](C)Cn4cnnn4)c3)cn2)c(C(F)(F)F)n1 (stereo partly drawn) [Example 608, 5-(3-(((S)-1-(1H-tetrazol-1-yl)propan-2-yl)oxy)-4-chlorophenyl)-N-(1-(sec-butyl)-3-(trifluoromethyl)-1H-pyrazol-4-yl)pyrimidin-2-amine] was run?
A: 10 to 100 nM

Q: How did the IC50 turn out when C[C@@H](Cn1cnnn1)Oc1cc(-c2cnc(Nc3cn(CC4CCCN4C4COC4)nc3C(F)(F)F)nc2)ccc1Cl (stereo partly drawn) [Example 609, 5-(3-(((S)-1-(1H-tetrazol-1-yl)propan-2-yl)oxy)-4-chlorophenyl)-N-(1-((1-(oxetan-3-yl)pyrrolidin-2-yl)methyl)-3-(trifluoromethyl)-1H-pyrazol-4-yl)pyrimidin-2-amine] was run?
A: 10 to 100 nM

Q: Which IC50 does the source give for Cc1ncc(N2CC(CN3CCOCC3)C2)cc1Nc1ncc(-c2ccc(Cl)c(O[C@@H](C)Cn3cnnn3)c2)cn1 [Example 610, (S)-5-(3-((1-(1H-tetrazol-1-yl)propan-2-yl)oxy)-4-chlorophenyl)-N-(2-methyl-5-(3-(morpholinomethyl)azetidin-1-yl)pyridin-3-yl)pyrimidin-2-amine] here?
A: < 10 nM

Q: For C[C@@H](Cn1cnnn1)Oc1cc(-c2cnc(Nc3cn(CC4CCCN4C4CCOCC4)nc3C(F)(F)F)nc2)ccc1Cl (stereo partly drawn) [Example 611, 5-(3-(((S)-1-(1H-tetrazol-1-yl)propan-2-yl)oxy)-4-chlorophenyl)-N-(1-((1-(tetrahydro-2H-pyran-4-yl)pyrrolidin-2-yl)methyl)-3-(trifluoromethyl)-1H-pyrazol-4-yl)pyrimidin-2-amine], which IC50 is on record?
A: < 10 nM

Q: For COc1ccc(N2C[C@@H](C)N[C@@H](C)C2)cc1Nc1ncc(-c2ccc(Cl)c(O[C@@H](C)Cn3cnnn3)c2)cn1 [Example 612, 5-(3-(((S)-1-(1H-tetrazol-1-yl)propan-2-yl)oxy)-4-chlorophenyl)-N-(5-(cis-3,5-dimethylpiperazin-1-yl)-2-methoxyphenyl)pyrimidin-2-amine], which IC50 is on record?
A: < 10 nM

Q: Which IC50 does the source give for COc1nc(N2CCN(C(=O)OC(C)(C)C)CC2)ccc1Nc1ncc(-c2ccc(Cl)c(O[C@@H](C)Cn3cnnn3)c2)cn1 [Example 613, tert-butyl (S)-4-(5-((5-(3-((1-(1H-tetrazol-1-yl)propan-2-yl)oxy)-4-chlorophenyl)pyrimidin-2-yl)amino)-6-methoxypyridin-2-yl)piperazine-1-carboxylate] here?
A: ≥ 100 nM

Q: How did the IC50 turn out when COc1nc(N2CCNCC2)ccc1Nc1ncc(-c2ccc(Cl)c(O[C@@H](C)Cn3cnnn3)c2)cn1 [Example 614, (S)-5-(3-((1-(1H-tetrazol-1-yl)propan-2-yl)oxy)-4-chlorophenyl)-N-(2-methoxy-6-(piperazin-1-yl)pyridin-3-yl)pyrimidin-2-amine] was run?
A: < 10 nM

Q: With COc1cc(N2CCOC(CN(C)C)C2)ccc1Nc1ncc(-c2ccc(Cl)c(O[C@@H](C)Cn3cnnn3)c2)cn1 (stereo partly drawn) [Example 615, 5-(3-(((S)-1-(1H-tetrazol-1-yl)propan-2-yl)oxy)-4-chlorophenyl)-N-(4-(2-((dimethylamino)methyl)morpholino)-2-methoxyphenyl)pyrimidin-2-amine] as the compound, how does the IC50 read?
A: < 10 nM

Q: COc1nc(N2CCN(C3CCOCC3)CC2)ccc1Nc1ncc(-c2ccc(Cl)c(O[C@@H](C)Cn3cnnn3)c2)cn1 [Example 616, (S)-5-(3-((1-(1H-tetrazol-1-yl)propan-2-yl)oxy)-4-chlorophenyl)-N-(2-methoxy-6-(4-(tetrahydro-2H-pyran-4-yl)piperazin-1-yl)pyridin-3-yl)pyrimidin-2-amine] was tested. Which IC50 did it give?
A: < 10 nM

Q: For C[C@@H](Cn1cnnn1)Oc1cc(-c2cnc(Nc3cn(CC(=O)Nc4ccccc4)nc3C(F)(F)F)nc2)ccc1Cl [Example 617, (S)-2-(4-((5-(3-((1-(1H-tetrazol-1-yl)propan-2-yl)oxy)-4-chlorophenyl)pyrimidin-2-yl)amino)-3-(trifluoromethyl)-1H-pyrazol-1-yl)-N-phenylacetamide], which IC50 is on record?
A: 10 to 100 nM

Q: How did the IC50 turn out when C[C@@H](Cn1cnnn1)Oc1cc(-c2cnc(Nc3cn(C4CCNC4)nc3C(F)(F)F)nc2)ccc1Cl (stereo partly drawn) [Example 618, 5-(3-(((S)-1-(1H-tetrazol-1-yl)propan-2-yl)oxy)-4-chlorophenyl)-N-(1-(pyrrolidin-3-yl)-3-(trifluoromethyl)-1H-pyrazol-4-yl)pyrimidin-2-amine] was run?
A: < 10 nM

Q: How did the IC50 turn out when C[C@@H](Cn1cnnn1)Oc1cc(-c2cnc(Nc3cn(C4CCN(C5COC5)C4)nc3C(F)(F)F)nc2)ccc1Cl (stereo partly drawn) [Example 619, 5-(3-(((S)-1-(1H-tetrazol-1-yl)propan-2-yl)oxy)-4-chlorophenyl)-N-(1-(1-(oxetan-3-yl)pyrrolidin-3-yl)-3-(trifluoromethyl)-1H-pyrazol-4-yl)pyrimidin-2-amine] was run?
A: 10 to 100 nM

Q: Which IC50 does the source give for C[C@@H](Cn1cnnn1)Oc1cc(-c2cnc(Nc3cn(CCOCCO)nc3C(F)(F)F)nc2)ccc1Cl [Example 620, (S)-2-(2-(4-((5-(3-((1-(1H-tetrazol-1-yl)propan-2-yl)oxy)-4-chlorophenyl)pyrimidin-2-yl)amino)-3-(trifluoromethyl)-1H-pyrazol-1-yl)ethoxy)ethan-1-ol] here?
A: 10 to 100 nM

Q: For COc1cc(N2CCNCC2)cnc1Nc1ncc(-c2ccc(Cl)c(O[C@@H](C)Cn3cnnn3)c2)cn1 [Example 621, (S)-5-(3-((1-(1H-tetrazol-1-yl)propan-2-yl)oxy)-4-chlorophenyl)-N-(3-methoxy-5-(piperazin-1-yl)pyridin-2-yl)pyrimidin-2-amine], which IC50 is on record?
A: 10 to 100 nM

Q: Which IC50 does the source give for COc1cc(N2CCNCC2)ncc1Nc1ncc(-c2ccc(Cl)c(O[C@@H](C)Cn3cnnn3)c2)cn1 [Example 622, (S)-5-(3-((1-(1H-tetrazol-1-yl)propan-2-yl)oxy)-4-chlorophenyl)-N-(4-methoxy-6-(piperazin-1-yl)pyridin-3-yl)pyrimidin-2-amine] here?
A: < 10 nM

Q: For CC(C)c1nn(C2CCN(C3CCOCC3)CC2)cc1Nc1ncc(-c2ccc(Cl)c(O[C@@H](C)Cn3cnnn3)c2)cn1 [Example 623, (S)-5-(3-((1-(1H-tetrazol-1-yl)propan-2-yl)oxy)-4-chlorophenyl)-N-(3-isopropyl-1-(1-(tetrahydro-2H-pyran-4-yl)piperidin-4-yl)-1H-pyrazol-4-yl)pyrimidin-2-amine], which IC50 is on record?
A: < 10 nM

Q: With CCn1cc(Nc2ncc(-c3ccc(Cl)c(O[C@@H](C)Cn4cnnn4)c3)cn2)c(N2CCOCC2)n1 [Example 624, (S)-5-(3-((1-(1H-tetrazol-1-yl)propan-2-yl)oxy)-4-chlorophenyl)-N-(1-ethyl-3-morpholino-1H-pyrazol-4-yl)pyrimidin-2-amine] as the compound, how does the IC50 read?
A: ≥ 100 nM

Q: C[C@@H](Cn1cnnn1)Oc1cc(-c2cnc(Nc3cn([C@H]4CC[C@@H](C(=O)O)CC4)nc3C(F)(F)F)nc2)ccc1Cl [Example 625, cis-(S)-4-(4-((5-(3-((1-(1H-tetrazol-1-yl)propan-2-yl)oxy)-4-chlorophenyl)pyrimidin-2-yl)amino)-3-(trifluoromethyl)-1H-pyrazol-1-yl)cyclohexane-1-carboxylic acid] was tested. Which IC50 did it give?
A: ≥ 100 nM

Q: With C[C@@H](Cn1cnnn1)Oc1cc(-c2cnc(Nc3cn([C@H]4CC[C@H](C(=O)O)CC4)nc3C(F)(F)F)nc2)ccc1Cl [Example 626, trans-(S)-4-(4-((5-(3-((1-(1H-tetrazol-1-yl)propan-2-yl)oxy)-4-chlorophenyl)pyrimidin-2-yl)amino)-3-(trifluoromethyl)-1H-pyrazol-1-yl)cyclohexane-1-carboxylic acid] as the compound, how does the IC50 read?
A: 10 to 100 nM
